Values quoted from earlier work as cited in patent US20150086650A1 (priority 2012, published 2015).

Assays:
[1] = rats

CO/C=C(/C(=O)OC)c1ccccc1Oc1cc(Oc2ccccc2C#N)ncn1 [Azoxystrobin]
inhalation toxicity classification: toxic by inhalation
acute oral LD50 [1]: more than 5,000 mg/kg
